In the NIST ThermoML archive (doi:10.1016/j.fluid.2016.05.030):

Key:
[1] = molar heat capacity at constant pressure; settings: 298.15 K; 101.33 kPa; Liquid; Drop calorimetry
[2] = 101.33 kPa, Liquid; for viscosity: Concentric cylinders viscometry; for mass density: Vibrating tube method

CCCCCCCCCc1cccc[n+]1CC.O=S(=O)([N-]S(=O)(=O)C(F)(F)F)C(F)(F)F
Settings | molar heat capacity at constant pressure [J/K/mol]
[1] | 778.5

CCCCCCCCCCc1cccc[n+]1CC.O=S(=O)([N-]S(=O)(=O)C(F)(F)F)C(F)(F)F
Settings | molar heat capacity at constant pressure [J/K/mol]
[1] | 811.2

CCCCCCc1cccc[n+]1CC.O=S(=O)([N-]S(=O)(=O)C(F)(F)F)C(F)(F)F
Settings | molar heat capacity at constant pressure [J/K/mol]
[1] | 685.5

[2]
Settings | mass density [kg/m3] | viscosity [mPa·s]
293.15 K | 1348.7 | 159.82
298.15 K | 1344.3 | 119.41
303.15 K | 1339.9 | 91.77
308.15 K | 1335.5 | 71.93
313.15 K | 1331.2 | 57.52
318.15 K | 1326.8 | 46.51
323.15 K | 1322.5 | 38.22
328.15 K | 1318.2 | 31.83
333.15 K | 1313.9 | 26.87
338.15 K | 1309.7 | 22.8
343.15 K | 1305.6 | 19.59
348.15 K | 1301.4 | 16.98
353.15 K | 1297.1 | 14.86
358.15 K | 1292.9 | 13.04
363.15 K | 1288.8 | 11.54

CCCCc1cccc[n+]1CC.O=S(=O)([N-]S(=O)(=O)C(F)(F)F)C(F)(F)F
Settings | molar heat capacity at constant pressure [J/K/mol]
[1] | 623.6

[2]
Settings | mass density [kg/m3] | viscosity [mPa·s]
293.15 K | 1413.7 | 146.84
298.15 K | 1409.1 | 109.82
303.15 K | 1404.5 | 84.49
308.15 K | 1400 | 66.34
313.15 K | 1395.4 | 53.17
318.15 K | 1390.9 | 43.11
323.15 K | 1386.4 | 35.55
328.15 K | 1381.9 | 29.7
333.15 K | 1377.4 | 25.14
338.15 K | 1373 | 21.42
343.15 K | 1368.5 | 18.45
348.15 K | 1364.1 | 16.04
353.15 K | 1359.7 | 14.09
358.15 K | 1355.4 | 12.39
363.15 K | 1351 | 11

CCCc1cccc[n+]1CC.O=S(=O)([N-]S(=O)(=O)C(F)(F)F)C(F)(F)F
Settings | molar heat capacity at constant pressure [J/K/mol]
[1] | 593.9

[2]
Settings | mass density [kg/m3] | viscosity [mPa·s]
293.15 K | 1452 | 139.89
298.15 K | 1447.2 | 105.02
303.15 K | 1442.5 | 81.09
308.15 K | 1437.8 | 63.9
313.15 K | 1433.1 | 51.37
318.15 K | 1428.4 | 41.8
323.15 K | 1423.8 | 34.57
328.15 K | 1419.2 | 28.96
333.15 K | 1414.6 | 24.59
338.15 K | 1410 | 21
343.15 K | 1405.4 | 18.15
348.15 K | 1400.9 | 15.82
353.15 K | 1396.4 | 13.94
358.15 K | 1391.9 | 12.3
363.15 K | 1387.5 | 10.95

CCc1cccc[n+]1CC.O=S(=O)([N-]S(=O)(=O)C(F)(F)F)C(F)(F)F [1,2-diethylpyridin-1-ium bis((trifluoromethyl)sulfonyl)imide]
Settings | molar heat capacity at constant pressure [J/K/mol]
[1] | 566.1

[2]
Settings | mass density [kg/m3] | viscosity [mPa·s]
293.15 K | 1475.5 | 87.87
298.15 K | 1470.6 | 68.77
303.15 K | 1465.8 | 54.95
308.15 K | 1461.1 | 44.69
313.15 K | 1456.3 | 36.91
318.15 K | 1451.6 | 30.88
323.15 K | 1446.9 | 26.16
328.15 K | 1442.2 | 22.38
333.15 K | 1437.5 | 19.4
338.15 K | 1432.9 | 16.9
343.15 K | 1428.3 | 14.86
348.15 K | 1423.7 | 13.16
353.15 K | 1419.1 | 11.75
358.15 K | 1414.6 | 10.52
363.15 K | 1410 | 9.483

CCCCCc1cccc[n+]1CC.O=S(=O)([N-]S(=O)(=O)C(F)(F)F)C(F)(F)F
Settings | molar heat capacity at constant pressure [J/K/mol]
[1] | 652.7

[2]
Settings | mass density [kg/m3] | viscosity [mPa·s]
293.15 K | 1375.6 | 144.37
298.15 K | 1371.1 | 108.78
303.15 K | 1366.6 | 83.99
308.15 K | 1362.2 | 66.14
313.15 K | 1357.8 | 53
318.15 K | 1353.4 | 43.06
323.15 K | 1349 | 35.52
328.15 K | 1344.6 | 29.65
333.15 K | 1340.2 | 25.11
338.15 K | 1335.8 | 21.4
343.15 K | 1331.5 | 18.44
348.15 K | 1327.1 | 16.02
353.15 K | 1322.8 | 14.06
358.15 K | 1318.6 | 12.36
363.15 K | 1314.3 | 10.97

CCCCCCCCc1cccc[n+]1CC.O=S(=O)([N-]S(=O)(=O)C(F)(F)F)C(F)(F)F
Settings | molar heat capacity at constant pressure [J/K/mol]
[1] | 749.4

[2]
Settings | mass density [kg/m3] | viscosity [mPa·s]
293.15 K | 1301.7 | 216.19
298.15 K | 1297.4 | 159.29
303.15 K | 1293.2 | 120.76
308.15 K | 1289 | 93.45
313.15 K | 1284.8 | 73.88
318.15 K | 1280.6 | 59
323.15 K | 1276.4 | 47.97
328.15 K | 1272.3 | 39.54
333.15 K | 1268.1 | 33.06
338.15 K | 1264 | 27.82
343.15 K | 1259.9 | 23.71
348.15 K | 1255.8 | 20.39
353.15 K | 1251.7 | 17.72
358.15 K | 1247.6 | 15.44
363.15 K | 1243.6 | 13.58

CCCCCCCc1cccc[n+]1CC.O=S(=O)([N-]S(=O)(=O)C(F)(F)F)C(F)(F)F
Settings | molar heat capacity at constant pressure [J/K/mol]
[1] | 717.5

[2]
Settings | mass density [kg/m3] | viscosity [mPa·s]
293.15 K | 1325.1 | 180.53
298.15 K | 1320.8 | 134.1
303.15 K | 1316.5 | 102.47
308.15 K | 1312.2 | 79.9
313.15 K | 1307.9 | 63.6
318.15 K | 1303.6 | 51.17
323.15 K | 1299.4 | 41.88
328.15 K | 1295.2 | 34.73
333.15 K | 1290.9 | 29.21
338.15 K | 1286.7 | 24.71
343.15 K | 1282.5 | 21.16
348.15 K | 1278.3 | 18.28
353.15 K | 1274.2 | 15.97
358.15 K | 1270.1 | 13.97
363.15 K | 1266 | 12.34
